Where “and” joins values, the source holds several entries; their conditions need not be identical. Equal entries are not always repeated.
Columns and labels:
[1] = system: C. orbiculare eIF4A^His153Gly; test: In planta fungal biomass on cucumber cotyledons (RT-qPCR); assay type: in vivo, Colletotrichum orbiculare; settings: cucumber leaves; 1 µM aglafoline; 3 dpi; Figure 4B
Protocol: Fungal inoculation was performed as previously described ([Hiruma and Saijo, 2016]; [Kumakura et al., 2019]) with modifications. Cucumber cotyledons were used for C. orbiculare inoculation. Seeds of cucumber, Cucumis sativus Suyo strain (Sakata Seed Corp.), were planted on a mix of equal amounts of vermiculite (VS Kakou) and Supermix A (Sakata Seed Corp.). Cucumbers were grown at 24°C under a 10 hr light/14 hr dark cycle using biotrons (NK Systems). Cotyledons were detached from seedlings of cucumbers and inoculated with C. orbiculare at 13 days post-germination. C. orbiculare strains (eIF4A^WT#1 and eIF4A^H153G#1, Supplementary file 4) were cultured on 100 ml of 3.9% PDA in a 300 ml flask at 25°C for 6 days in the dark. Conidia that appeared on the surface of PDA were suspended in 20 ml of sterilized water, filtered through cell strainers (100 µm pore size, Corning), pelleted by centrifugation at 760 × g for 5 min, and resuspended in sterilized water. The concentration of conidia was measured with disposable hemacytometers (Funakoshi) and adjusted to 10^5 conidia/ml with or without aglafoline (1 µM). […]
Relative expression levels of the C. orbiculare 60S ribosomal protein L5 gene (GenBank: Cob_v012718) ([Gan et al., 2013]) normalized to that of a cucumber cyclophilin gene (GenBank: AY942800.1) ([Liang et al., 2018]) were determined. […]

[2] = molecular target: T1, H. sapiens eIF4A1 Phe163Gly (Homo sapiens, UniProt P60842, F163G); test: In vitro translation assay in reconstituted system with human factors; assay type: biochemical; settings: for translation of reporter mRNA, Mean / translation of reporter mRNA, replicates: CAA repeats reporter, value at 0 μM RocA = 1
T1 construct: His tag (N); made in house; host or cells: E. coli BL21 Star (DE3)
T1 sequence (P60842 whole entry F163G): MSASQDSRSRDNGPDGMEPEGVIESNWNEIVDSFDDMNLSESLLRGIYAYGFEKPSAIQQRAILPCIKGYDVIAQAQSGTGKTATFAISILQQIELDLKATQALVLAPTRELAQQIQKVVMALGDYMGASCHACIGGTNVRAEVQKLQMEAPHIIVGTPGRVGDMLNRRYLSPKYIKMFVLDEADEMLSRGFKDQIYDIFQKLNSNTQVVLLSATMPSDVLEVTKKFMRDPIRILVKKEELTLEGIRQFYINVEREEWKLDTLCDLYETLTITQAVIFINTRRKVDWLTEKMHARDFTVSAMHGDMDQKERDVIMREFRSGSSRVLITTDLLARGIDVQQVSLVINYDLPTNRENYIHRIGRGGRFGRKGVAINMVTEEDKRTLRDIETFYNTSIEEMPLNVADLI
Description: (§1) The DNA fragments PCR-amplified from psiCHECK2−7×AGAGAG motifs or psiCHECK2-CAA repeats ([Iwasaki et al., 2016]) were used as a template for in vitro transcription with a T7-Scribe Standard RNA IVT Kit ([…]). RNA was capped and poly(A) tailed with a ScriptCap m^7G Capping System, a ScriptCap 2′-O-Methyltransferase Kit, and an A-Plus Poly(A) Polymerase Tailing Kit ([…]).
(§2) The reconstitution system for human translation has been described previously ([Iwasaki et al., 2019]; [Machida et al., 2018]; [Yokoyama et al., 2019]). The in vitro translation reaction and luciferase assay were performed as previously described ([Iwasaki et al., 2019]) with some modifications. The final concentrations of mRNA and the eIF4A protein were 60 ng/µl and 2.16 µM, respectively. The translation mixture was incubated for 2.5 hr. The fluorescence signal was detected using the Renilla-Glo Luciferase Assay System (Promega) and measured in an EnVision 2104 plate reader (PerkinElmer).

H. sapiens eIF4A1 WT = molecular target: T2, H. sapiens eIF4A1 WT (Homo sapiens, UniProt P60842); test: as above; assay type: biochemical; settings: for translation of reporter mRNA, Mean / translation of reporter mRNA, replicates: CAA repeats reporter, value at 0 μM RocA = 1
T2 construct: His tag (N); made in house; host or cells: E. coli BL21 Star (DE3)
T2 sequence (P60842 whole entry): as the sequence (P60842 whole entry F163G) above, with G163F counted along it
Description: as §1, §2

[3] = system: Ophiocordyceps sp. BRM1 eIF4A Gly172His; test: In vitro translation in RRL with complex-preformed mRNAs; assay type: biochemical; settings: reporter mRNA with polypurine motifs preincubated with eIF4A and 9.1 µM RocA, free RocA removed; Figure 3B
Protocol: as §1
(§3) Then, 4 µl of complex-preformed mRNA was incubated with 50% RRL (Promega) in a 10 µl reaction volume for 1 hr at 30°C, according to the manufacturer’s instructions. The fluorescence signal was detected using the Renilla-Glo Luciferase Assay System (Promega) and measured with the GloMax Navigator System (Promega). In the control experiments, instead of recombinant eIF4A proteins, storage buffer was used. Moreover, recombinant eIF4A proteins were added to the G-25 flowthrough solution in place of the storage buffer.

[4] = system: Ophiocordyceps sp. BRM1 eIF4A WT; test: as above; assay type: biochemical; settings: reporter mRNA with polypurine motifs preincubated with eIF4A and 9.1 µM RocA, free RocA removed; Figure 3B
Protocol: as §1, §3

SMILES	in planta fungal biomass [1]	translation of reporter mRNA, Mean ([2]; RocA 0.1 μM)	translation of reporter mRNA, replicates ([2]; RocA 0.1 μM)	translation of reporter mRNA, Mean ([2]; RocA 1 μM)	translation of reporter mRNA, replicates ([2]; RocA 1 μM)	translation of reporter mRNA, Mean ([2]; RocA 10 μM)	translation of reporter mRNA, replicates ([2]; RocA 10 μM)	translation of reporter mRNA ([2]; polypurine motif reporter mRNA, Figure 3A)	translation of reporter mRNA, Mean (H. sapiens eIF4A1 WT; RocA 0.1 μM)	translation of reporter mRNA, replicates (H. sapiens eIF4A1 WT; RocA 0.1 μM)	translation of reporter mRNA, Mean (H. sapiens eIF4A1 WT; RocA 1 μM)	translation of reporter mRNA, replicates (H. sapiens eIF4A1 WT; RocA 1 μM)	translation of reporter mRNA, Mean (H. sapiens eIF4A1 WT; RocA 10 μM)	translation of reporter mRNA, replicates (H. sapiens eIF4A1 WT; RocA 10 μM)	translation of reporter mRNA (H. sapiens eIF4A1 WT; polypurine motif-possessing reporter mRNA, Figure 3A)	translation of complex-preformed mRNA in RRL [3]	translation of complex-preformed mRNA in RRL [4]
COC(=O)[C@H]1[C@@H](O)[C@@]2(O)c3c(OC)cc(OC)cc3O[C@@]2(c2ccc(OC)cc2)[C@@H]1c1ccccc1 [Aglafoline, methyl rocaglate]	resulted in rocaglate resistance in the fungi	–	–	–	–	–	–	–	–	–	–	–	–	–	–	–	–
COc1ccc([C@@]23Oc4cc(OC)cc(OC)c4[C@]2(O)[C@H](O)[C@H](C(=O)N(C)C)[C@H]3c2ccccc2)cc1 [RocA, rocaglamide A]	–	1.06	0.8871 and 1.301 and 0.9923	1.42	0.8083 and 2.551 and 0.9008	0.918	0.6256 and 1.131 and 0.9971	prevented the translation repression mediated by RocA	1.2394	0.9075 and 1.715 and 1.095	1.148	0.7715 and 1.702 and 0.9709	1.012	0.7743 and 1.31 and 0.9501	translation reduction from polypurine motif-possessing reporter mRNA	could act as a translation repressor	could not alter translation

Source: publication PMC9977294, “A parasitic fungus employs mutated eIF4A to survive on rocaglate-synthesizing Aglaia plants” (eLife, 2023)
